Assay results: patent US8846951B2 (AbbVie Inc., priority 2009, dated 2014); call rule not given here
Where two headings read alike, the source gives them in different places.

Columns and labels:
[1] = molecular target: T1, 5HT2B receptors (Homo sapiens, UniProt P41595); assay: Human 5-HT2B functional high throughput screening assay in CHO-K1 cells (calcium flux); format: cell-based; details: for EC50: CHO-K1 cells, calcium flux
T1 construct: expressed in transfected cells; host or cells: CHO-K1 cells
Outline: (§1)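 FLIPR calcium readout, ex 480/em 530 nm, 25 °C, 3 min post-addition; agonist response normalized to serotonin, 4-parameter fit → EC50, Emax (% serotonin). Cells: frozen CHO-K1 stable lines, serum-free overnight, Ca4 dye + 2.5 mM probenecid, 60 min RT dark.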

[2] = molecular target: T2, 5HT2C receptors (Homo sapiens, UniProt P28335); assay: Human 5-HT2C functional high throughput screening assay in CHO-K1 cells (calcium flux); format: cell-based; design: expressed in transfected cells; host or cells: CHO-K1 cells; details: for Emax: CHO-K1, 5-HT2C, maximum functional response as percentage relative to the effect of serotonin; for EC50: CHO-K1 cells, calcium flux
T2 sequence (P28335 33-458): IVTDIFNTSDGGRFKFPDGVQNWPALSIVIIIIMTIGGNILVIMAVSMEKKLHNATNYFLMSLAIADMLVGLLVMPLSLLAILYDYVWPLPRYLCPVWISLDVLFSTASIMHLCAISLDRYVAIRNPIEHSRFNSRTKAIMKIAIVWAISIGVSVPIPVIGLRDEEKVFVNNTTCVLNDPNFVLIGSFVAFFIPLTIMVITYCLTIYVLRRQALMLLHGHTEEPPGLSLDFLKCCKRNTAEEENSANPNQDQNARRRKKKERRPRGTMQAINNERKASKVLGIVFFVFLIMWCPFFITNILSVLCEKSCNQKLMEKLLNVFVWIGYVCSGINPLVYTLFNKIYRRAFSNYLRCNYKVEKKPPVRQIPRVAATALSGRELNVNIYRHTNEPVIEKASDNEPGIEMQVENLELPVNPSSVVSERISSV
Outline: as §1

[3] = 5-HT2B agonist activity, read-out: EC50
[4] = 5-HT2B, maximum functional response as percentage relative to the effect of serotonin
[5] = 5-HT2C agonist activity, read-out: EC50

T1 sequence (P41595 whole entry): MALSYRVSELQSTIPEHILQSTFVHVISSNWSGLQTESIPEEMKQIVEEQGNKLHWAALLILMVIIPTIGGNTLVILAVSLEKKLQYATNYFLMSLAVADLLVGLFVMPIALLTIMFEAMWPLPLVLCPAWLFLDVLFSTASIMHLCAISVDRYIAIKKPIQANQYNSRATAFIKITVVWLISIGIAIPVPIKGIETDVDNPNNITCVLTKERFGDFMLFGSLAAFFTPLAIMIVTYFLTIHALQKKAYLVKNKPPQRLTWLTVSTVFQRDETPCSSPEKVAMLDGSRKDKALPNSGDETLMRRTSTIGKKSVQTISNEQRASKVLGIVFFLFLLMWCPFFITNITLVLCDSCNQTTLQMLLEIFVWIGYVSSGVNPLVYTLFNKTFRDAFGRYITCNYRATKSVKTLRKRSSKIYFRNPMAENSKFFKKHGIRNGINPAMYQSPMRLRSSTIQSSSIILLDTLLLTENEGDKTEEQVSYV

| SMILES | Emax ([1]; CHO-K1) [%] | EC50 ([1]; EC50, 5-HT2B agonist activity) [µM] | Emax [2] [%] | EC50 ([2]; EC50, 5-HT2C agonist activity) [µM] | EC50 [1, 3] [µM] | Emax [1, 4] | EC50 [2, 5] [µM] | Emax ([2]; read-out: Emax) [%] |
| --- | --- | --- | --- | --- | --- | --- | --- | --- |
| CN1CC[C@@H]2CNC[C@H]2c2cccc(Cl)c21 (relative stereo) [Example 375, Trans-7-chloro-6-methyl-1,2,3,3a,4,5,6,10b-octahydropyrrolo[3,4-d][1]benzazepine] | 95 | 0.01 | 100 | 0.0003 | – | – | – | – |
| COc1ccc(F)cc1-c1ccc2c(c1)C(=O)NC[C@@H]1CN(C)C[C@@H]21 (relative stereo) [Example 300, Trans-8-(5-fluoro-2-methoxyphenyl)-2-methyl-2,3,3a,4,5,10b-hexahydropyrrolo[3,4-d][2]benzazepin-6(1H)-one] | – | – | – | – | > 10 | inactive | 0.05 | 100 |
| CN1C[C@@H]2CNC(=O)c3cc(OCc4c(F)cccc4F)ccc3[C@H]2C1 [Example 209, (3aS,10bS)-8-(2,6-Difluorobenzyloxy)-2-methyl-1,2,3,3a,4,5-hexahydrobenzo[e]pyrrolo[3,4-c]azepin-6(10bH)-one] | – | – | – | – | > 10 | inactive | 0.001 | > 120 |
| CN1C[C@H]2CNC(=O)c3cc(-c4ccc5c(c4)CCO5)ccc3[C@@H]2C1 (relative stereo) [Example 321, Trans-8-(2,3-dihydro-1-benzofuran-5-yl)-2-methyl-2,3,3a,4,5,10b-hexahydropyrrolo[3,4-d][2]benzazepin-6(1H)-one] | – | – | – | – | > 10 | inactive | 0.003 | 90 |
| Fc1cccc2c1OCC[C@H]1CNC[C@H]21 (relative stereo) [Example 281, Trans-7-fluoro-2,3,3a,4,5,10b-hexahydro-1H-[1]benzoxepino[4,5-c]pyrrole] | 90 | 0.1 | 100 | 0.008 | – | – | – | – |
| CC(C)c1cccc(-c2ccc3c(c2)C(=O)NC[C@@H]2CNC[C@@H]32)c1 (relative stereo) [Example 378, Trans-8-(3-isopropylphenyl)-2,3,3a,4,5,10b-hexahydropyrrolo[3,4-d][2]benzazepin-6(1H)-one] | – | – | – | – | > 10 | inactive | 0.0004 | 105 |
| Brc1ccc2c(c1)[C@@H]1CNC[C@H]1CCN2 (relative stereo) [Example 396, Trans-9-bromo-1,2,3,3a,4,5,6,10b-octahydropyrrolo[3,4-d][1]benzazepine] | 60 | 0.006 | 90 | 0.03 | – | – | – | – |
| CCCC(O)c1cccc(-c2ccc3c(c2)C(=O)NC[C@H]2CN(C)C[C@H]32)c1 (stereo partly drawn) [Example 313, (3aS,10bS)-8-[3-(1-Hydroxybutyl)phenyl]-2-methyl-2,3,3a,4,5,10b-hexahydropyrrolo[3,4-d][2]benzazepin-6(1H)-one] | – | – | – | – | > 10 | inactive | 0.0008 | 95 |
| Fc1ccc(F)c2c1OCC[C@H]1CNC[C@@H]21 (relative stereo) [Example 288, Cis-7,10-difluoro-2,3,3a,4,5,10b-hexahydro-1H-[1]benzoxepino[4,5-c]pyrrole] | 50 | 0.7 | 90 | 0.04 | – | – | – | – |
| COc1ccc(-c2ccc3c(c2)C(=O)NC[C@@H]2CN(C)C[C@@H]32)cc1 (relative stereo) [Example 131, Trans-8-(4-methoxyphenyl)-2-methyl-1,2,3,3a,4,5-hexahydrobenzo[e]pyrrolo[3,4-c]azepin-6(10bH)-one] | – | – | – | – | > 10 | inactive | – | > 120 |
| CN1C[C@H]2CNC(=O)c3cc(C(=O)NCCc4cccc(C(F)(F)F)c4)ccc3[C@@H]2C1 (relative stereo) [Example 127, Trans-2-methyl-6-oxo-N-(3-(trifluoromethyl)phenethyl)-1,2,3,3a,4,5,6,10b-octahydrobenzo[e]pyrrolo[3,4-c]azepine-8-carboxamide] | – | – | – | – | > 10 | inactive | 1 | 80 |
| CN1C[C@H]2CNC(=O)c3cc(-c4cccc(S(C)(=O)=O)c4)ccc3[C@@H]2C1 [Example 229, (3aR,10bR)-2-Methyl-8-(3-(methylsulfonyl)phenyl)-1,2,3,3a,4,5-hexahydrobenzo[c]pyrrolo[3,4-e]azepin-6(10bH)-one] | – | – | – | – | > 10 | inactive | – | 90 |
| O=C1NC[C@@H]2CN(Cc3ccccc3)C[C@H]2c2ccc(-c3ccc(F)cc3)cc21 (relative stereo) [Example 218, Trans-2-benzyl-8-(4-fluorophenyl)-1,2,3,3a,4,5-hexahydrobenzo[e]pyrrolo[3,4-c]azepin-6(10bH)-one] | – | – | – | – | > 10 | inactive | 0.04 | > 120 |
| O=C1NC[C@@H]2CNC[C@H]2c2ccc(-c3ccc(F)cc3)cc21 [Example 221, (3aS,10bR)-8-(4-Fluorophenyl)-1,2,3,3a,4,5-hexahydrobenzo[e]pyrrolo[3,4-c]azepin-6(10bH)-one] | – | – | – | – | > 10 | inactive | – | > 120 |
| C[C@@H](Oc1ccc2c(c1)C(=O)NC[C@@H]1CNC[C@@H]21)c1ccccc1 (mixture of isomers) [Example 150, Trans-8-((R)-1-phenylethoxy)-1,2,3,3a,4,5-hexahydrobenzo[e]pyrrolo[3,4-c]azepin-6(10bH)-one] | – | > 10 | > 120 | 0.05 | – | inactive | – | – |
| c1cc(-c2ccncc2)c2c(c1)[C@H]1CNC[C@@H]1CCO2 (relative stereo) [Example 369, Trans-7-(pyridin-4-yl)-2,3,3a,4,5,10b-hexahydro-1H-[1]benzoxepino[4,5-c]pyrrole] | – | – | 90 | – | > 10 | inactive | 0.3 | – |
| CC(C)(C)c1ccc(S(=O)(=O)N2Cc3cccnc3[C@@H]3CNC[C@H]3C2)cc1 (relative stereo) [Example 344, Trans-6-[(4-tert-butylphenyl)sulfonyl]-5,6,7,7a,8,9,10,10a-octahydropyrido[3,2-c]pyrrolo[3,4-e]azepine] | – | – | – | – | > 10 | inactive | 0.09 | 85 |
| Brc1ccc2c(c1)[C@H]1CNC[C@@H]1CCO2 (relative stereo) [Example 214, Trans-9-bromo-2,3,3a,4,5,10b-hexahydro-1H-[1]benzoxepino[4,5-c]pyrrole] | 50 | 0.02 | > 120 | 0.002 | – | – | – | – |
| O=C1NC[C@H]2CN(Cc3ccccc3)C[C@@H]2c2c(F)cc(F)cc21 [Example 105, (3aS,10bS)-2-Benzyl-8,10-difluoro-1,2,3,3a,4,5-hexahydrobenzo[c]pyrrolo[3,4-e]azepin-6(10bH)-one] | – | > 10 | > 120 | 0.02 | – | inactive | – | – |
| Cc1ccccc1S(=O)(=O)N1Cc2cccnc2[C@@H]2CNC[C@H]2C1 (relative stereo) [Example 341, Trans-6-[(2-methylphenyl)sulfonyl]-5,6,7,7a,8,9,10,10a-octahydropyrido[3,2-c]pyrrolo[3,4-e]azepine] | 65 | 0.3 | 90 | 0.09 | – | – | – | – |
| Cc1ccc2c(c1)OCC[C@H]1CNC[C@H]21 (relative stereo) [Example 373, Trans-8-methyl-2,3,3a,4,5,10b-hexahydro-1H-[1]benzoxepino[4,5-c]pyrrole] | 70 | 0.05 | 100 | 0.006 | – | – | – | – |
| CN1C[C@H]2CNC(=O)c3cc(-c4ccc(S(C)(=O)=O)cc4)ccc3[C@@H]2C1 (relative stereo) [Example 83, Trans-2-methyl-8-(4-(methylsulfonyl)phenyl)-1,2,3,3a,4,5-hexahydrobenzo[e]pyrrolo[3,4-c]azepin-6(10bH)-one] | – | – | – | – | > 10 | inactive | 0.2 | > 120 |
| CCc1ccc(-c2ccc3c(c2)C(=O)NC[C@@H]2CN(C)C[C@@H]32)cc1 (relative stereo) [Example 139, Trans-8-(4-ethylphenyl)-2-methyl-1,2,3,3a,4,5-hexahydrobenzo[e]pyrrolo[3,4-c]azepin-6(10bH)-one] | – | – | – | – | > 10 | inactive | 0.03 | > 120 |
| COc1ccc2c(c1)C(=O)NC[C@@H]1CN(Cc3ccccc3)C[C@H]21 (relative stereo) [Example 130, Cis-2-benzyl-8-methoxy-1,2,3,3a,4,5-hexahydrobenzo[e]pyrrolo[3,4-c]azepin-6(10bH)-one] | – | – | – | – | > 10 | inactive | 0.9 | 100 |
